Measured values reported in article PMC9541279 (The Plant Journal, 2022).

Target: T1, DkSCPL1 and DkSCPL2 co-expressed (Diospyros kaki, UniProt C6L1N2)
T1 sequence (C6L1N2 36-491): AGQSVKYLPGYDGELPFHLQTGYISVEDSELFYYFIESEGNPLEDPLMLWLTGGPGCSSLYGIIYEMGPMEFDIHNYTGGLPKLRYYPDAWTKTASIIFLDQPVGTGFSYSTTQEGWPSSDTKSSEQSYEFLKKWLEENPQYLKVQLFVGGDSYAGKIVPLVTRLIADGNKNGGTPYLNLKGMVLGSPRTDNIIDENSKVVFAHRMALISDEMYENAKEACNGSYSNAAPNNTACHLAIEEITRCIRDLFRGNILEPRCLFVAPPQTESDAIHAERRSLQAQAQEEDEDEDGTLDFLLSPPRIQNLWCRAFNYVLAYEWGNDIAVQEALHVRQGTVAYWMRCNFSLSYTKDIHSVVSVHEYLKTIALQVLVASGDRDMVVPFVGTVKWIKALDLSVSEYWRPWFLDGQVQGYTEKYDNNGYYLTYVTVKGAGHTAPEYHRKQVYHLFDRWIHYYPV
T1 sequence (A4PB66 1-452 partner): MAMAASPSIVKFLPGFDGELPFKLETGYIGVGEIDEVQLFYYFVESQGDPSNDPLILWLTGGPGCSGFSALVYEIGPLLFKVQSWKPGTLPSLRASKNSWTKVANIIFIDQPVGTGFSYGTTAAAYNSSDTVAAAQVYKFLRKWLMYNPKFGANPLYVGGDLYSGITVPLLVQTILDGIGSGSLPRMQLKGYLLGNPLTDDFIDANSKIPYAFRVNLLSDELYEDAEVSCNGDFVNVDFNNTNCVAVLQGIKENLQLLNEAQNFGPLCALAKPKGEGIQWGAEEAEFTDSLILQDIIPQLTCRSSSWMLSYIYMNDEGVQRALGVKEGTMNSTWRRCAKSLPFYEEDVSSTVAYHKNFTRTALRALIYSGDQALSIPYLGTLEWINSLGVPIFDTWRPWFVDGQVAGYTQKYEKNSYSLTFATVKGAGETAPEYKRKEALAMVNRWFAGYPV
Experiment: EGCG formation, UPLC-MS/MS, crude extract of N. benthamiana leaves
Type: biochemical
Settings: 50 mM phosphate pH 6.0, 30 °C

## Oc1cc(O)c2c(c1)O[C@H](c1cc(O)c(O)c(O)c1)[C@H](O)C2 [EGC]
Acyl donor βG
  EGCG formation, UPLC-MS/MS, crude extract of N. benthamiana leaves: the two paralogs when co‐expressed catalyzed the formation of EGCG

## O=C(O[C@@H]1O[C@H](CO)[C@@H](O)[C@H](O)[C@H]1O)c1cc(O)c(O)c(O)c1 [βG]
Acyl acceptor EGC
  EGCG formation, UPLC-MS/MS, crude extract of N. benthamiana leaves: the two paralogs when co‐expressed catalyzed the formation of EGCG
